Experimental data reported in patent US20140011799A1 (Bristol-Myers Squibb Company, priority 2012, published 2014).

What was measured:
[1] = molecular target: T1, Endothelial lipase (EL) (Homo sapiens, UniProt Q9Y5X9); assay: Endothelial lipase (EL) enzymatic assay, fluorescent substrate A10070 in DMPG vesicles; assay type: biochemical; settings: EL from conditioned media of HT-1080 cells; compound preincubated 30 min at 37° C; read-out: EL IC50
T1 construct: HT-1080 cells that were transformed using RAGE technology (Athersys) to overexpress endogenous EL; endogenous in cells; conditioned medium used
T1 sequence (Q9Y5X9 21-500): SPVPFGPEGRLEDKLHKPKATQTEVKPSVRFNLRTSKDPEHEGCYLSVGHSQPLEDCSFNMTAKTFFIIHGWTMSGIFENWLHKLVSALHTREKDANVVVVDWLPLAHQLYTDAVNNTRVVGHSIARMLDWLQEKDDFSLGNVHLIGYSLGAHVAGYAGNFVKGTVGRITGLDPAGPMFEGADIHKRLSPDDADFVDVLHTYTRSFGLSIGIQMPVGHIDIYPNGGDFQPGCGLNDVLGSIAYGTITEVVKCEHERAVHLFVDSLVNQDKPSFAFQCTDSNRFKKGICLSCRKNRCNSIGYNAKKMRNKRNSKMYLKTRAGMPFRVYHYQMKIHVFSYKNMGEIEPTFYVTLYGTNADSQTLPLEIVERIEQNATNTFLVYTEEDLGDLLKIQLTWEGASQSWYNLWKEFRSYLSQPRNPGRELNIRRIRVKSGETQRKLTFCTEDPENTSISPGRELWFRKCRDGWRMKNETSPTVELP
How it was run: (§1)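 Substrate A10070 sits in sonicated DMPG vesicles at 0.11 mole fraction. Lipase and compound preincubated 30 min, 37° C, in HEPES pH 8.0 buffer with CaCl2.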

[2] = molecular target: T2, hepatic lipase (HL) (Homo sapiens, UniProt P11150); assay: Hepatic lipase (HL) enzymatic assay, fluorescent substrate A10070 in DMPG vesicles; assay type: biochemical; settings: HL partially purified from conditioned media of COS cells; compound preincubated 30 min at 37° C; read-out: HL IC50
T2 construct: made in house; host or cells: COS cells (conditioned medium, partially purified)
T2 sequence (P11150 23-499): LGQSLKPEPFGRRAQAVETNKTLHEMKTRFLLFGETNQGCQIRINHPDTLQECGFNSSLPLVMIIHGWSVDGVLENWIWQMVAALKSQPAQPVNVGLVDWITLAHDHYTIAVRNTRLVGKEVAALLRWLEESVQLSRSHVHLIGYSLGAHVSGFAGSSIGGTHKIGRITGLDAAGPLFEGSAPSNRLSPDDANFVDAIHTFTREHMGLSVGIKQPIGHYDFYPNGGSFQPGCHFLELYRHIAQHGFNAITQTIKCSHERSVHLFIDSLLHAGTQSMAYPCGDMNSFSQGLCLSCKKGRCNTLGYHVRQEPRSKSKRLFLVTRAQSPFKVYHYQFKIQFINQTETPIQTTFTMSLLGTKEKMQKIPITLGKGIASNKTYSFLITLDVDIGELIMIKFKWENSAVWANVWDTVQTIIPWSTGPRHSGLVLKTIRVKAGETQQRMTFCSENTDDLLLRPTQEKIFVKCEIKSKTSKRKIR
How it was run: as §1

Row | IC50 [1] | IC50 [2] | Compound
1 | 35 nM | 53 nM | CC(C)CN(C)C(=O)c1cccc(-c2ccc3nc(C(c4nnc(CC5(C)NC(=O)NC5=O)o4)S(C)(=O)=O)sc3c2)c1 (centres unmarked) [Example 226, 3-{2-[methanesulfonyl({5-[(4-methyl-2,5-dioxo-imidazolidin-4-yl)methyl]-1,3,4-oxadiazol-2-yl})methyl]-1,3-benzothiazol-6-yl}-N-methyl-N-(2-methylpropyl)benzamide]
2 | 223 nM | 34 nM | CCOCC(=O)NCc1nnc(C(c2nc3ccc(-c4ccccc4)cc3s2)S(C)(=O)=O)o1 (centres unmarked) [Example 157, 2-ethoxy-N-((5-((methylsulfonyl)(6-phenyl-1,3-benzothiazol-2-yl)methyl)-1,3,4-oxadiazol-2-yl)methyl)acetamide]
3 | 1 nM | 54 nM | CC1(Cc2nnc(C(c3nc4ccc(-c5cccc(C(=O)N6CC[C@@H](F)C6)c5)cc4s3)S(C)(=O)=O)o2)NC(=O)NC1=O (stereo partly drawn) [Example 232, 5-({5-[(6-{3-[(3R)-3-fluoropyrrolidine-1-carbonyl]phenyl}-1,3-benzothiazol-2-yl) (methanesulfonyl)methyl]-1,3,4-oxadiazol-2-yl}methyl)-5-methyl-imidazolidine-2,4-dione]
4 | 19 nM | 17 nM | COCCS(=O)(=O)C(c1nnc(CNS(=O)(=O)NC(=O)OC(C)(C)C)o1)c1nc2ccc(-c3cc(F)cc(Cl)c3)cc2s1 (centres unmarked) [Example 153, tert-butyl (((5-((6-(3-chloro-5-fluorophenyl)-1,3-benzothiazol-2-yl)((2-methoxyethyl)sulfonyl)methyl)-1,3,4-oxadiazol-2-yl)methyl)sulfamoyl) carbamate]
5 | < 10 nM | < 10 nM | CC(C)Cn1cc(-c2ccc3nc(C(c4nnc(CNS(N)(=O)=O)o4)S(=O)(=O)Cc4ccccc4)sc3c2)cn1 (centres unmarked) [Example 136, N-((5-((benzylsulfonyl)(6-(1-isobutyl-1H-pyrazol-4-yl)-1,3-benzothiazol-2-yl)methyl)-1,3,4-oxadiazol-2-yl)methyl)sulfamide]
6 | < 10 nM | 560 nM | C=CCS(=O)(=O)C(c1nnc(CNS(N)(=O)=O)o1)c1nc2ccc(-c3ccc(C(=O)N4CCOCC4)cc3)cc2s1 (centres unmarked) [Example 150, N-((5-((allylsulfonyl)(6-(4-(4-morpholinylcarbonyl)phenyl)-1,3-benzothiazol-2-yl)methyl)-1,3,4-oxadiazol-2-yl)methyl)sulfamide]
7 | 168 nM | > 25000 nM | Cn1cc(-c2ccc3nc(C(c4nnc(CNC(=O)OC(C)(C)C)o4)S(C)(=O)=O)sc3c2)cn1 (centres unmarked) [Example 98, tert-butyl ((5-((6-(1-methyl-1H-pyrazol-4-yl)-1,3-benzothiazol-2-yl)(methylsulfonyl)methyl)-1,3,4-oxadiazol-2-yl)methyl) carbamate]
8 | < 10 nM | 44 nM | O=C(Cc1nnc(C(c2nc3ccc(-c4ccc(C(=O)N5CCOCC5)cc4)cc3s2)S(=O)(=O)Cc2ccccc2)o1)NC1CCCC1 (centres unmarked) [Example 180, 2-(5-((benzylsulfonyl)(6-(4-(4-morpholinylcarbonyl)phenyl)-1,3-benzothiazol-2-yl)methyl)-1,3,4-oxadiazol-2-yl)-N-cyclopentylacetamide]

Row | Compound | IC50 [1] | IC50 [2]
9 | NS(=O)(=O)NCc1nnc(C(c2nc3ccc(-c4cccc(C(=O)O)c4)cc3s2)S(=O)(=O)CCC(F)(F)F)o1 (centres unmarked) [Example 191, 3-(2-((5-((Sulfamoylamino)methyl)-1,3,4-oxadiazol-2-yl)((3,3,3-trifluoropropyl)sulfonyl)methyl)-1,3-benzothiazol-6-yl)benzoic acid] | 15 nM | 2670 nM
10 | COCCS(=O)(=O)C(c1nnc(CNS(N)(=O)=O)o1)c1nc2ccc(-c3ccccc3)cc2s1 (centres unmarked) [Example 119, N-[(5-{[(2-methoxyethyl)sulfonyl](6-phenyl-1,3-benzothiazol-2-yl)methyl}-1,3,4-oxadiazol-2-yl)methyl]sulfuric diamide] | < 10 nM | < 10 nM
